# Test results reported in patent US20240057592A1, “PESTICIDE COMPOSITIONS OF PHENOL AND RESORCINOL DIENES AND TRIENES” (METABOLIC INSIGHTS LTD., priority 2020, published 2024).
# Experiments:
# [1] = tested on: Rhizoctonia solani; test: Microplate based assay of bioactivity against Rhizoctonia solani; type: cell-based
# Excerpt: • 1) Screen plate at 3 more dates: 3 d, 7 d, 14 d and 21 d following the assay start • 2) Calculate the difference of absorbance between each screen and the read at zero time • 3) Calculate the percentage of growth inhibition of each well at each time point. […]
# [2] = tested on: Pythium aphanidermatum; test: In-vivo validation under greenhouse conditions in cucumber seedlings infected with Pythium aphanidermatum; conditions: preventative treatment 24 h before inoculation, 7 d after inoculation, best of 9 experiments
# Procedure: (§1) Formulation 3—Three types of stock solutions were used for final CART formulation preparation at 400 ppm: • (A) 0.1% CART solution in water+base (CART dissolved in water to 0.1% and sonicated for 10 mins at room temperature, then Na2CO3 25% stock was added to volume of 4% of the solution. The solution should be clear orange and at pH=8.0. The solution was sonicated for 20 minutes); • (B) 0.4% Xanthan Gum in water (w/w); • (C) 0.6% Silwet in water (w/w). The final formulation which was applied to cucumber seedlings composed of: 40% of stock solution A, 10% of stock solutions B and C, and 40% of water. The final formulation 3 was either applied as 400 ppm of diluted to the required concentrations and applied to cucumber seedlings. Formulation 4—Three types of stock solutions were used for final CART formulation preparation at 400 ppm: • (A) 10% CART in DMSO (CART dissolved in DMSO to 10% (w/w) and sonicated for 5 mins at room temperature); • (B) 0.4% Xanthan Gum in water (w/w); • (C) 0.6% Silwet in water (w/w). The final formulation which was applied to cucumber seedlings composed of: […], 10% of stock solutions B and C, and 76% of water. The final formulation 4 was either applied as 400 ppm of diluted to the required concentrations and applied to cucumber seedlings. […]
# (§2) To evaluate the effect of a Cardol triene in infected plants compared to control plants (infected but not treated) the data was analyzed by Student's t-test and the p-value is calculated. […]
# • General description: Pythium aphanidermatum disease severity development was evaluated following preventative treatment by Cardol triene (CART) […]
# [3] = tested on: Pythium aphanidermatum; test: Microplate based screening of bioactivity against Pythium aphanidermatum; type: cell-based
# Procedure: The following Materials, methods and equipment were used: • Materials: SCH, PDBC, DMSO • Equipment: Plate reader, Centrifuge, Shaker, Incubator
# • Grow Pythium aphanidermatum on SCH in 90 mm petri plates to get sporulating hyphae. […]
# • 1) Read out the plate at 3 more dates: 3 d, 7 d, 14 d and 21 d following the assay start • 2) Calculate the difference of absorbance between each readout and the readout at zero time • 3) Calculate the percentage of growth inhibition of each well at each time point. […]
# [4] = tested on: Pseudomonas syringae; test: Microplate based screening of bioactivity against Pseudomonas syringae; type: cell-based
# Procedure: • 1) Grow Pseudomonas on LBA plates at 28° C. for 2 days to get a single colony • 2) Transfer a single colony using a sterile toothpick into a 50 ml sterile tube containing 5 ml LB and grow for 24 at 28° C. and 150 RPM • 3) Chill the tube in the fridge for 1 h • 4) Add 7.5 ml of fridge cold, sterile, glycerol solution to the tube—to get 60% glycerol solution • 5) Mix well but gently to get perfect mixing—use vortex at 1000 RPM • 6) Aliquot 100 ul of bacteria suspension in 60% glycerol into 1.5 ml tubes—each aliquot should be enough for screening of 10 microplates • 7) Store the bacteria suspension in 60% glycerol at −20° C.
# • 1) Take 1.5 ml tube with 100 ul frozen Pseudomonas suspension from the freezer and thaw it on ice • 2) Prepare in the hood 50 ml tubes with 40 ml fridge cold LB • 3) Mix 40 ul of bacteria suspension with 40 ml fridge cold LB in a 50 ml tube. This amount is enough for activity screening of 10 microplates • 4) Use this suspension for bioactivity screening experiments.
# The bioactivity values are in % and reflect the potential of eradicating the target pests. Rules for Bioactivity Relative Value Calculation (Expressed in % from Maximal Value) • a. […] Pseudomonas syringae—activity grade (1/2/3)×repeats #X days of activity/168 (maximal value 3×4×14=168)*100
# [5] = tested on: Rhizoctonia solani; test: In-vivo validation under greenhouse conditions in cucumber seedlings infected with Rhizoctonia solani; conditions: preventative treatment 24 h before inoculation, 7 d after inoculation, best of 9 experiments
# Procedure: as §1, §2
# • General description: Rhizoctonia disease severity were evaluated following preventative treatment with CART (Cardol triene). […]
# [6] = 10 ul of 250 ppm solution + 40 ul inoculum, activity grade x repeats x days of activity/252*100, read to 21 d
smiles,measurement,setting,value
"C=CC/C=C\C/C=C\CCCCCCCc1cc(O)cc(O)c1 [Cardol triene, 5-8Z,11Z,14-pentadecatrien-1-yl-1,3-benzenediol]",Relative Activity value (%),[1]; [6],60%
same,pesticidal activity in words,[1]; summary statement,effective pesticides
same,efficacy at preventing the plants death,[2]; 100 ppm,up to 97.6%
same,efficacy at preventing the plants death,[2]; 200 ppm,up to 100%
same,efficacy at preventing the plants death,[2]; 400 ppm,up to 71.4%
same,Relative Activity value (%),[3]; [6],100%
same,pesticidal activity in words,[3]; summary statement,effective pesticides
same,Relative Activity value (%),"[4]; 10 ul of 250 ppm solution + 40 ul inoculum, activity grade x repeats x days of activity/168*100",50%
same,pesticidal activity in words,[4]; summary statement,effective pesticides
same,efficacy at preventing the plants death,[5]; 100 ppm,up to 81.2%
same,efficacy at preventing the plants death,[5]; 200 ppm,up to 100%
same,efficacy at preventing the plants death,[5]; 400 ppm,up to 98.4%
